A short description of series [1]: Solid form stability in suspension/slurry (XRPD). In kind it is physicochemical. How it is done:
An X-ray powder diffraction pattern of Form A is indicative of a crystalline material with multiple diffraction peaks between 5° and 30° 2-theta.

Series [2] in a line: Solubility in various aqueous solvent systems measured for 20 hours. In kind it is physicochemical. On the procedure:
[table] The solubility of Form A in various aqueous solvent systems was measured for a period of 20 hours.

Series [3] is described as follows: Partition coefficient between 1-octanol and water. In kind it is physicochemical. Particulars: 1-octanol/water; pH (equilibrium) 3.8 (native); 0.033 mg/mL in aqueous phase at start. How it is done: Partition coefficient of Form A between I-octanol and water were determined at the native pH of the HCl Salt (Table III).
Series [4] in a line: Solubility in water and organic solvents at room temperature (suspended for 7 days). In kind it is physicochemical. On the procedure: [table] The solubility of Form A HCl Salt at room temperature was determined in water and several organic solvents that can be used in pharmaceutical processing.
Series [5] can be described thus: Hygroscopicity, step isotherm program 0 to 95% RH. Particulars: 25° C. In kind it is physicochemical. On the procedure:
The hygroscopicity of Form A was determined at 25° C. using a step isotherm program for relative humidities from 0 to 95% RH under nitrogen flow.

In another series the target is T1, human KDR (Homo sapiens, UniProt P35968).
T1 construct: cloning the cytoplasmic domain of the KDR kinase as an in frame fusion at the carboxy terminus of the GST gene; made in house; host or cells: Spodoptera frugiperda (Sf21) insect cells, baculovirus vector pAcG2T
The series can be described thus: VEGF Receptor Kinase Assay. In kind it is biochemical. Particulars: tested by the assays described (KDR, HUVEC, Flt-1, Flt-3); no values given. How it is done:
Other assays are known in the literature and could be readily performed by those of skill in the art (see, for example, Dhanabal et al., Cancer Res. 59:189-197; Xin et al., J. Biol. Chem. 274:9116-9121; Sheu et al., Anticancer Res. 18:4435-4441; Ausprunk et al., Dev. Biol. 38:237-248; Gimbrone et al., J. Natl. Cancer Inst. 52:413-427; Nicosia et al., In Vitro 18:538-549).
VEGF receptor kinase activity is measured by incorporation of radio-labeled phosphate into polyglutarnic acid, tyrosine, 4:1 (pEY) substrate. The phosphorylated pEY product is trapped onto a filter membrane and the incorporation of radio-labeled phosphate quantified by scintillation counting.
The intracellular tyrosine kinase domains of human KDR (Tennan, B. I. et al. Oncogene (1991) vol. 6, pp. 1677-1683.) and Flt-1 (Shibuya, M. et al. Oncogene (1990) vol. 5, pp. 519-524) were cloned as glutathione S-transferase (GST) gene fusion proteins. This was accomplished by cloning the cytoplasmic domain of the KDR kinase as an in frame fusion at the carboxy terminus of the GST gene. Soluble recombinant GST-kinase domain fusion proteins were expressed in Spodoptera frugiperda (Sf21) insect cells (Invitrogen) using a baculovirus expression vector (pAcG2T, Pharmingen). […]

Broadly, the Solubility is the dissolved amount per volume that the medium holds. Higher therefore signals a readily soluble substance.

T1 sequence (P35968 786-1356 limits assumed): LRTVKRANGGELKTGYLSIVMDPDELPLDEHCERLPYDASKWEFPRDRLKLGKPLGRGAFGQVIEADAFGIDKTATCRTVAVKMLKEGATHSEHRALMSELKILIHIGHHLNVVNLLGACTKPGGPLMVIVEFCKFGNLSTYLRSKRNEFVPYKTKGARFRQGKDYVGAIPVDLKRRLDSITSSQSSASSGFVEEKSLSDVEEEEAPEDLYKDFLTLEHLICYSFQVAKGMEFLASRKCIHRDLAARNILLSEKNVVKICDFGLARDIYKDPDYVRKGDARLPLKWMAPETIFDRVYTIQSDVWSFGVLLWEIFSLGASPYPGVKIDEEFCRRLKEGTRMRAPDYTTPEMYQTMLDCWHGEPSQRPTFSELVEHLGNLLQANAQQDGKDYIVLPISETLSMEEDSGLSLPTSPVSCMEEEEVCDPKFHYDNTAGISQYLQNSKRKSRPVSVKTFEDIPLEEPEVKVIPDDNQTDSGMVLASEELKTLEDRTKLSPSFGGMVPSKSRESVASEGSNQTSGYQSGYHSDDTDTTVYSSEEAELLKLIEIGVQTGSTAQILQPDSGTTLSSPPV

Regarding `CS(=O)(=O)N1CCN(Cc2ccc3[nH]c(-c4cc5ccccc5[nH]c4=O)cc3c2)CC1.Cl` [Form E, hydrochloride salt of 3-[5-(4-methanesulfonyl-piperazin-1-ylmethyl)-1H-indol-2-yl]-1H-quinolin-2-one], the “Solid form after slurry” value in series [1] (slurry in water at room temperature for seven days) is reported as “provided Form D crystalline solid”.
For `CS(=O)(=O)N1CCN(Cc2ccc3[nH]c(-c4cc5ccccc5[nH]c4=O)cc3c2)CC1.Cl` [Form A, hydrochloride salt of 3-[5-(4-methanesulfonyl-piperazin-1-ylmethyl)-1H-indol-2-yl]-1H-quinolin-2-one], the “Change in crystal structure (XRPD)” value in series [1] (suspended in aqueous ethanol for seven days at RT) is recorded as “No change in crystal structure”. The Solubility in series [2] (10% EtOH) stood at 380 µg/mL; in series [2] (10% IPA), 470 µg/mL; in series [2] (25% EtOH), 1060 µg/mL; in series [2] (25% IPA), 1780 µg/mL; in series [2] (50% Acetone) it was 10660 µg/mL; in series [2] (50% EtOH) it was 3820 µg/mL. Also, the Solubility in series [2] (50% IPA) is 4390 µg/mL; in series [2] (75% EtOH), 3860 µg/mL; in series [2] (75% IPA), 2290 µg/mL; in series [2] (Acetone), 61 µg/mL; in series [4] (Aqueous ETOH (50%)), 4340 µg/mL; in series [4] (Aqueous IPA (50%)) it was 3990 µg/mL. The Solubility in series [4] (Ethanol) amounted to 130 µg/mL; in series [4] (Isopropanol) it was 57 µg/mL; in series [4] (Water), 260 µg/mL. Also, the “log P (log Ko/w)” value in series [3] is given as −4.34. For the same compound, the Hygroscopicity result in series [5] (0 to 95% RH under nitrogen flow) is “not hygroscopic”. The Moisture reversibly adsorbed result in series [5] (75% RH) is “approximately 1%”.
For `CS(=O)(=O)N1CCN(Cc2ccc3[nH]c(-c4cc5ccccc5[nH]c4=O)cc3c2)CC1` [Compound 1-11, 3-[5-(4-Methanesulfonyl-piperazin-1-ylmethyl)-1H-indol-2-yl]-1H-quinolin-2-one], at human KDR, the kinase inhibitory activity entry is on record as “inhibits the kinase KDR”.

These data come from patent US20050113577A1, “Solid forms of slats with tyrosine kinase activity” (priority 2002, published 2005).
